How the values were obtained:
bamyardgrass = experiment: Test B flood test barnyardgrass; assay type: in vivo, Echinochloa crus-galli
Procedure, shortened: (§1)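 Plants were grown to the 2-leaf stage before treatment with test chemical, then held in a greenhouse for twelve to sixteen days. Injury was visually rated against untreated controls on a 0–10 scale, where 0 is no effect and 10 is complete control.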

surinam grass = experiment: Test B pre/postemergence surinam grass; assay type: in vivo, Brachiaria decumbens
Procedure, shortened: (§2)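 Response is a visual 0-to-10 score relative to untreated plants, where 0 means no effect and 10 means complete control, taken twelve to sixteen days after application. Treatments went onto soil at planting and onto foliage of 1- to 4-leaf plants, using a surfactant-containing non-phytotoxic solvent.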

cocklebur = experiment: Test B pre/postemergence cocklebur; assay type: in vivo, Xanthium strumarium
Procedure, shortened: as §2

blackgrass = experiment: Test B pre/postemergence blackgrass; assay type: in vivo, Alopecurus myosuroides
Procedure, shortened: as §2

corn = experiment: Test B pre/postemergence corn; assay type: in vivo, Zea mays
Procedure, shortened: as §2

giant foxtail = experiment: Test B pre/postemergence giant foxtail; assay type: in vivo, Setaria faberii
Procedure, shortened: as §2

rape = experiment: Test B pre/postemergence rape; assay type: in vivo, Brassica napus
Procedure, shortened: as §2

wild oat = experiment: Test B pre/postemergence wild oat; assay type: in vivo, Avena fatua
Procedure, shortened: as §2

velvetleaf = experiment: Test B pre/postemergence velvetleaf; assay type: in vivo, Abutilon theophrasti
Procedure, shortened: as §2

morningglory = experiment: Test B pre/postemergence morningglory; assay type: in vivo, Ipomoea hederacea
Procedure, shortened: as §2

purple nutsedge = experiment: Test B pre/postemergence purple nutsedge; assay type: in vivo, Cyperus rotundus
Procedure, shortened: as §2

smallflower flatsedge = experiment: Test B flood test smallflower flatsedge; assay type: in vivo, Cyperus difformis
Procedure, shortened: as §1

pigweed = experiment: Test B pre/postemergence pigweed; assay type: in vivo, Amaranthus retroflexus
Procedure, shortened: as §2

sugar beet = experiment: Test B pre/postemergence sugar beet; assay type: in vivo, Beta vulgaris
Procedure, shortened: as §2

crabgrass = experiment: Test B pre/postemergence crabgrass; assay type: in vivo, Digitaria sanguinalis
Procedure, shortened: as §2

soybean = experiment: Test B pre/postemergence soybean; assay type: in vivo, Glycine max
Procedure, shortened: as §2

[1] = Pre-emergence, Rate 62 g/ha, scale 0 to 10, 0 is no effect, 10 is complete control
[2] = Rate 125 g/ha, Pre-emergence section (flood test species), scale 0 to 10, 0 no effect, 10 complete control
[3] = Rate 250 g/ha, Pre-emergence (flood test species), scale 0 to 10, 0 is no effect, 10 is complete control
[4] = Rate 500 g/ha, Pre-emergence section of Table B, 0 to 10 scale (0 no effect, 10 complete control)
[5] = Postemergence, Rate 62 g/ha, scale 0 to 10, 0 is no effect, 10 is complete control
[6] = Postemergence, Rate 125 g/ha, scale of 0 to 10 where 0 is no effect and 10 is complete control
[7] = Preemergence, Rate 125 g/ha, scale of 0 to 10 where 0 is no effect and 10 is complete control
[8] = Preemergence, Rate 250 g/ha, scale 0 (no effect) to 10 (complete control)
[9] = Rate 250 g/ha, Postemergence, scale 0 to 10, 0 is no effect, 10 is complete control
[10] = Rate 500 g/ha, Preemergence, scale 0 to 10 (0 no effect, 10 complete control)
[11] = Rate 62 g/ha, Preemergence, scale 0 to 10
[12] = Rate 500 g/ha, Postemergence, scale 0 to 10, 0 is no effect, 10 is complete control

CC(C)N(C(=O)n1oc(=O)n(CCN(C)C(=O)c2ccccc2)c1=O)c1ccc(F)cc1 [Compound 741]
3: Giant foxtail plant response rating (giant foxtail; [9]) | Wild oats plant response rating (wild oat; [9]) | Plant response rating, Velvetleaf (velvetleaf; [7]) | Velvetleaf plant response rating (velvetleaf; [8]) | Velvetleaf plant response rating (velvetleaf; [10]) | Morningglory plant response rating (morningglory; [12]) | Plant response rating, Redroot pigweed (pigweed; [5]) | Soybean plant response rating (soybean; [9]) | Soybean plant response rating (soybean; [12])
1: Velvetleaf plant response rating (velvetleaf; [12]) | Morningglory plant response rating (morningglory; [6])
2: B. signalgrass plant response rating (surinam grass; [8]) | B. signalgrass plant response rating (surinam grass; [10]) | Plant response rating, Giant foxtail (giant foxtail; [7]) | Plant response rating, Soybean (soybean; [5]) | Soybean plant response rating (soybean; [6])
9: Giant foxtail plant response rating (giant foxtail; [8]) | Plant response rating, Crabgrass (crabgrass; [5]) | Crabgrass plant response rating (crabgrass; [9])
5: Morningglory plant response rating (morningglory; [9]) | Plant response rating, Crabgrass (crabgrass; [7]) | Crabgrass plant response rating (crabgrass; [8]) | Crabgrass plant response rating (crabgrass; [11])
0: Barnyardgrass plant response rating (bamyardgrass; [1]) | Barnyardgrass plant response rating (bamyardgrass; [2]) | Barnyardgrass plant response rating (bamyardgrass; [3]) | Barnyardgrass plant response rating (bamyardgrass; [4]) | Plant response rating, B. signalgrass (surinam grass; [5]) | B. signalgrass plant response rating (surinam grass; [6]) | B. signalgrass plant response rating (surinam grass; Preemergence, Rate 62 g/ha, scale of 0 to 10 where 0 is no effect and 10 is complete control) | Plant response rating, B. signalgrass (surinam grass; [7]) | Plant response rating, Cocklebur (cocklebur; [5]) | Cocklebur plant response rating (cocklebur; [6]) | Plant response rating, Cocklebur (cocklebur; [7]) | Cocklebur plant response rating (cocklebur; [8]) | Cocklebur plant response rating (cocklebur; [11]) | Cocklebur plant response rating (cocklebur; [9]) | Cocklebur plant response rating (cocklebur; [12]) | Plant response rating, Blackgrass (blackgrass; [5]) | Blackgrass plant response rating (blackgrass; [6]) | Plant response rating, Blackgrass (blackgrass; [7]) | Blackgrass plant response rating (blackgrass; [8]) | Blackgrass plant response rating (blackgrass; [11]) | Blackgrass plant response rating (blackgrass; [9]) | Blackgrass plant response rating (blackgrass; [12]) | Blackgrass plant response rating (blackgrass; [10]) | Plant response rating, Corn (corn; [5]) | Corn plant response rating (corn; [6]) | Plant response rating, Corn (corn; [7]) | Corn plant response rating (corn; [8]) | Corn plant response rating (corn; [11]) | Corn plant response rating (corn; [9]) | Corn plant response rating (corn; [12]) | Corn plant response rating (corn; [10]) | Plant response rating, Giant foxtail (giant foxtail; [5]) | Giant foxtail plant response rating (giant foxtail; [6]) | Giant foxtail plant response rating (giant foxtail; [11]) | Plant response rating, Rape (rape; [5]) | Rape plant response rating (rape; [6]) | Plant response rating, Rape (rape; [7]) | Rape plant response rating (rape; [8]) | Rape plant response rating (rape; [11]) | Rape plant response rating (rape; [9]) | Rape plant response rating (rape; [12]) | Rape plant response rating (rape; [10]) | Plant response rating, Wild oats (wild oat; [5]) | Wild oats plant response rating (wild oat; [6]) | Plant response rating, Wild oats (wild oat; [7]) | Wild oats plant response rating (wild oat; [8]) | Wild oats plant response rating (wild oat; [11]) | Plant response rating, Velvetleaf (velvetleaf; [5]) | Velvetleaf plant response rating (velvetleaf; [6]) | Velvetleaf plant response rating (velvetleaf; [11]) | Velvetleaf plant response rating (velvetleaf; [9]) | Plant response rating, Morningglory (morningglory; [7]) | Morningglory plant response rating (morningglory; [8]) | Morningglory plant response rating (morningglory; [11]) | Morningglory plant response rating (morningglory; [10]) | Plant response rating, Nutsedge (purple nutsedge; [5]) | Nutsedge plant response rating (purple nutsedge; [6]) | Plant response rating, Nutsedge (purple nutsedge; [7]) | Nutsedge plant response rating (purple nutsedge; [8]) | Nutsedge plant response rating (purple nutsedge; [11]) | Nutsedge plant response rating (purple nutsedge; [9]) | Nutsedge plant response rating (purple nutsedge; [12]) | Nutsedge plant response rating (purple nutsedge; [10]) | S. Flatsedge plant response rating (smallflower flatsedge; [1]) | S. Flatsedge plant response rating (smallflower flatsedge; [2]) | S. Flatsedge plant response rating (smallflower flatsedge; [3]) | Plant response rating, Redroot pigweed (pigweed; [7]) | Redroot pigweed plant response rating (pigweed; [8]) | Redroot pigweed plant response rating (pigweed; [11]) | Plant response rating, Sugarbeets (sugar beet; [5]) | Sugarbeets plant response rating (sugar beet; [6]) | Plant response rating, Sugarbeets (sugar beet; [7]) | Sugarbeets plant response rating (sugar beet; [8]) | Sugarbeets plant response rating (sugar beet; [11]) | Plant response rating, Soybean (soybean; [7]) | Soybean plant response rating (soybean; [8]) | Soybean plant response rating (soybean; [11]) | Soybean plant response rating (soybean; [10])
4: B. signalgrass plant response rating (surinam grass; [9]) | Giant foxtail plant response rating (giant foxtail; [12]) | Sugarbeets plant response rating (sugar beet; [9]) | Sugarbeets plant response rating (sugar beet; [12]) | Sugarbeets plant response rating (sugar beet; [10])
7: Wild oats plant response rating (wild oat; [10]) | Redroot pigweed plant response rating (pigweed; [6]) | Redroot pigweed plant response rating (pigweed; [9]) | Redroot pigweed plant response rating (pigweed; [12]) | Redroot pigweed plant response rating (pigweed; [10])
10: Giant foxtail plant response rating (giant foxtail; [10]) | Crabgrass plant response rating (crabgrass; [10])
8: S. Flatsedge plant response rating (smallflower flatsedge; [4])
